Where two headings read alike, the source gives them in different places.
Legend:
[1] = weak acid; cited from earlier work
[2] = free acid form of AS; cited from earlier work
[3] = Population pharmacokinetics of oral AS and its metabolite DHA in pregnant and non-pregnant women (NONMEM parent-metabolite model); assay type: in vivo, human
Excerpt: Women presenting for prenatal care at the clinic were screened for study eligibility if they were between 18 and 40 years of age and at less than 22 weeks gestation, determined by last menstrual period. Women confirmed by ultrasound to be between 8 to 21 weeks gestation (inclusive) were invited to be participants in the study. Women were asked to return between 22 to 26 weeks gestation for screening and enrollment; women not enrolled at 22 to 26 weeks were screened again at 32 to 36 weeks gestation. A cohort of non-pregnant female controls was also enrolled. At the time of enrollment, both the pregnant and non-pregnant subjects had asymptomatic Plasmodium falciparum parasitaemia, with a parasite density between 200 and 300,000 parasite/μL, were HIV seronegative, and were without anaemia (haematocrit >30%) or other major medical problems (e.g. chronic hypertension, diabetes, etc.). Plasmodium falciparum parasite density was assessed though Giemsa staining of thick and thin blood films; slide-positive infections were later PCR-confirmed using DNA extracted from dried blood spots [8].
Blood sampling schedule and sample handling were uniformly applied for pregnant, postpartum, and control subjects. Blood samples were collected in pre-chilled tubes containing potassium oxalate/sodium fluoride. Following collection, tubes were placed on wet ice; within 5 minutes of collection, samples were centrifuged. Immediately following centrifugation, plasma was removed from the cells and transferred into cryovials. The plasma samples were transferred to liquid nitrogen until they could be frozen at or below -80°C in a laboratory freezer; samples were later shipped on dry ice to the Clinical Pharmacokinetics Laboratory at the College of Pharmacy, University of Iowa, where they were stored at -80°C until drug analysis was performed.
The reconstituted extracts were chromatographed isocratically. Mass spectroscopy in positive ion mode was used to detect and quantify the compounds.
Nonlinear mixed effects model building was conducted using NONMEM software version 7 (ICON Development Solutions, Ellicott City, MD) [10] implemented on a Windows XP operating system (Microsoft Corporation, Seattle, WA) with a G95 Fortran compiler (Free Software Foundation, Boston, MA). Monte Carlo importance sampling expectation maximization with interaction (IMP INTER) estimation method was used to fit models. Pdx-Pop 4.0 (ICON Development Solutions, Ellicott City, MD) and Xpose version 4.1.0 (Uppsala University, Uppsala, Sweden) [11] were used in processing NONMEM 7 output. Plots were generated with TIBCO Spotfire S+ version 8.1 (TIBCO Software Inc., Palo Alto, CA) and R version 2.10.0 (Free Software Foundation, Boston, MA).
Simultaneous models were implemented using ADVAN 5.

[4] = parameters: method as in Newton et al 31; settings: oral AS, acute falciparum malaria patients, 95% CI 1.02 - 1.64; ref Newton et al 31; cited from earlier work
[5] = parameters: method as in McGready et al 5; settings: pregnant women (2nd or 3rd trimester), adjusted for median weight 50 kg, ref McGready et al 5, cited from earlier work
[6] = parameters: method as in Teja-Isavadharm et al 30; settings: oral AS, non-pregnant patients with falciparum malaria, non-compartmental, range 0.70 - 2.70 L/kg; ref Teja-Isavadharm et al 30; cited from earlier work
[7] = interindividual variability, final model

C[C@H]1[C@H](OC(=O)CCC(=O)O)O[C@@H]2O[C@@]3(C)CC[C@H]4[C@H](C)CC[C@@H]1[C@@]24OO3 [AS, artesunate]
pKa [1]: 4.6 | Solubility of the free acid form [2]: 168.2 µg/mL | IIV - V2/F, variance (%CV), estimate ([3]; female, human, in vivo): 0.604 (77.7) | IIV - V2/F, variance, bootstrap mean (95% CI) ([3]; female, human, in vivo): 0.568 (0.253-0.942) | half-life ([3]; female, human, in vivo, po, 200 mg, AS elimination half-life): ~9.1 min | CL/F apparent clearance of AS, bootstrap mean (95% CI) ([3]; human, in vivo, po, 200 mg): 904 (788-1045) L/h | CL/F: apparent clearance of AS, estimate ([3]; human, in vivo, po, 200 mg): 895 L/h

C[C@H]1[C@@H](O)O[C@@H]2O[C@@]3(C)CC[C@H]4[C@H](C)CC[C@@H]1[C@@]24OO3 [DHA, dihydroartemisinin]
DHA volume of distribution [4]: 1.33 L/kg | Oral DHA clearance ([5]; oral AS 4 mg/kg/day for three days with atovaquone and proguanil, 95% CI 60 - 117 L/h): 88.5 L/h | DHA volume of distribution ([5]; oral AS 4 mg/kg/day, 95% CI 57 - 406 L): 231.5 L | DHA volume of distribution [6]: 1.33 L/kg | RV - variance (residual variability), bootstrap mean (95% CI) ([3]; additive model for log-transformed plasma concentrations, 1000 bootstrap runs): 0.174 (0.129-0.226) | RV - variance (residual variability), estimate ([3]; additive model for log-transformed plasma concentrations, final model): 0.174 | CLM/F apparent clearance of DHA, bootstrap mean (95% CI) ([3]; after 200 mg oral AS, 1000 bootstrap runs, value without the pregnancy covariate (non-pregnant)): 64.2 (55.1-75.2) L/h | DHA volume of distribution adjusted for the median weight of the pregnancy and control groups ([3]; after 200 mg oral AS, current analysis): 1.58 L/kg | CLM/F: apparent clearance of DHA, estimate ([3]; after 200 mg oral AS, final model NONMEM estimate, value without the pregnancy covariate (non-pregnant)): 64.0 L/h | Vd/F ([3]; female, human, plasma, po, 200 mg, after 200 mg oral AS, 1000 bootstrap runs, read-out: V3/F apparent volume of distribution of DHA, bootstrap mean (95% CI)): 92.1 L | Vd/F ([3]; female, human, plasma, po, 200 mg, after 200 mg oral AS, final model NONMEM estimate, read-out: V3/F: apparent volume of distribution of DHA, estimate): 91.4 L | half-life ([3]; female, human, plasma, po, 200 mg, after 200 mg oral AS, non-pregnant, read-out: DHA elimination half-life, non-pregnant subjects): 59 min | half-life ([3]; female, human, plasma, po, 200 mg, after 200 mg oral AS, pregnant, read-out: DHA elimination half-life, pregnant subjects): 45 min | IIV - CLM/F, variance, bootstrap mean (95% CI) ([3]; interindividual variability, 1000 bootstrap runs): 0.0711 (0.031-0.113) | IIV - CLM/F, variance (%CV), estimate [3, 7]: 0.0802 (28.3) | IIV - V3/F, variance (%CV), estimate [3, 7]: 0.0790 (28.1) | PREG on CLM/F, bootstrap mean (95% CI) ([3]; pregnant vs non-pregnant women, 1000 bootstrap runs): 0.427 (0.197-0.723) | PREG on CLM/F: factor of proportional increase in CLM/F associated with pregnancy, estimate ([3]; pregnant vs non-pregnant women, final model NONMEM estimate): 0.423 | Pregnancy-associated trend towards increased DHA volume of distribution ([3]; pregnant vs non-pregnant, significant (p < 0.05) only in first forward addition step, not retained in final model): approximately 37% | DHA clearance in pregnant patients, estimate of the present analysis ([3]; pregnant, after 200 mg oral AS): 91 L/h

— paper PMC3098207 (Malaria Journal, 2011)
